The values that follow are results of earlier work, collected in patent US20040127531A1, “Adhesive coated sheet for dermal delivery of a selective cyclooxygenase-2 inhibitor” (priority 2002, published 2004).

One data set concerns the target COX-1 (Homo sapiens, UniProt P23219).
The next data set concerns the target T1, COX-2 (Homo sapiens, UniProt P35354).
T1 sequence (P35354 18-604): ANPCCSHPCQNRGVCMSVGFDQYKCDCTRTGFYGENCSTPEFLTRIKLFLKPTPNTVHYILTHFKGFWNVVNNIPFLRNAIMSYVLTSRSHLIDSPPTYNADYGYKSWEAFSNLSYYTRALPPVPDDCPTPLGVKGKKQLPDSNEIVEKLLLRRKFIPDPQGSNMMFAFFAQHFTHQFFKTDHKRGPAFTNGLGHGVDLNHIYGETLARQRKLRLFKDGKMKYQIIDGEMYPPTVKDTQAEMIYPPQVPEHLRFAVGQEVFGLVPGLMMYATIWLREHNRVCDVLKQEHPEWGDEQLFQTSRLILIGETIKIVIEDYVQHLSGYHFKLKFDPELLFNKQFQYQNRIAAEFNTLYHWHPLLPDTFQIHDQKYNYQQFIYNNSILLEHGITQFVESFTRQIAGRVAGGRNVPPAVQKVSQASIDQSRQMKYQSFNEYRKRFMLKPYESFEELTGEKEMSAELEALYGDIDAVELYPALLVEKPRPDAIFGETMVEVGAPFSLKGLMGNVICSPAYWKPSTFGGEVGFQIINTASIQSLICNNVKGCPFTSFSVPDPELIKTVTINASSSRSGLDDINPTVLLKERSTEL

Chain of COX-1 (P23219 24-599): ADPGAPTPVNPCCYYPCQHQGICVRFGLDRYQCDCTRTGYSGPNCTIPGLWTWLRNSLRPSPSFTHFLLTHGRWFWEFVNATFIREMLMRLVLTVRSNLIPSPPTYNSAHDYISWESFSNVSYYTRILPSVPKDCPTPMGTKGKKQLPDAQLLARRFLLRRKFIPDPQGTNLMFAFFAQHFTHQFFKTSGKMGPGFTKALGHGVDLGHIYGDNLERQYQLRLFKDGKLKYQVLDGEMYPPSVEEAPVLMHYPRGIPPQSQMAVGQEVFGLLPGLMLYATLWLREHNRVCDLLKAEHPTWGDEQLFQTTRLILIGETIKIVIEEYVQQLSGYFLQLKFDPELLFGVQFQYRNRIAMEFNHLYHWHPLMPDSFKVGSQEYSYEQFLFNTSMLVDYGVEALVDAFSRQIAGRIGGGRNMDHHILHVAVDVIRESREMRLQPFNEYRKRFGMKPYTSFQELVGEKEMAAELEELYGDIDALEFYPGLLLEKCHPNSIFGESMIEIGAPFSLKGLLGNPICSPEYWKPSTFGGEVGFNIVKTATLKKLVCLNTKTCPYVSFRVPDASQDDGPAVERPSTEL

For the molecule `CCC(=O)NS(=O)(=O)c1ccc(-c2c(-c3ccccc3)noc2C)cc1` [Parecoxib, N-[[4-(5-methyl-3-phenylisoxazol-4-yl)phenyl]sulfonyl]propanamide], at COX-1, the “in vitro inhibitory activity against COX-1” value was “weak”. Further, the “in vitro inhibitory activity against COX-2” value at COX-2 is listed as “weak”. `Cc1onc(-c2ccccc2)c1-c1ccc(S(N)(=O)=O)cc1` [valdecoxib, 4-[5-methyl-3-phenylisoxazol-4-yl]benzenesulfonamide]: the “in vitro inhibitory activity against COX-1” value at COX-1 is “weak”.
